# Test results as given in US9765108B2 (SHILPA MEDICARE LIMITED, priority 2012, dated 2017).
# Like-named read-outs stand apart in the source and are kept apart here.
# Tests used:
# [1] = Water content of lyophilized formulation / crystalline form; format: physicochemical; conditions: neat crystalline form as obtained after lyophilization, no bulking agent
# Description: The secondary drying phase is the final segment of the lyophilization cycle, where residual moisture is removed from a formulation's interstitial matrix by desorption with elevated temperatures and/or reduced pressures. The final moisture content of a lyophilized formulation, which can be measured by Karl Fischer or other methods, is important because if the solid cake contains too much residual moisture, the stability of the active can be compromised.
# Chemical stability is tested for both example 1 & it's corresponding placebo formulation by storing the lyophilized vials under various conditions: 25° C. and 60% relative humidity (“A”); 40° C. and 75% relative humidity (“B”); and 60° (“C”); for one month. Impurity analyses are done before storage (“Initial”) and after storage, and are expressed as percentages of the label 5-azacytidine content.
# [2] = cited from earlier work
structure (smiles),measurement,setting,value
"Nc1ncn([C@@H]2O[C@H](CO)[C@@H](O)[C@H]2O)c(=O)n1 [Crystalline 5-Azacytidine Form-SA-2, 5-Azacytidine]",Water content,[1],0.7 % w/w
"Nc1ncn([C@@H]2O[C@H](CO)[C@@H](O)[C@H]2O)c(=O)n1 [5-azacytidine, 4-amino-1-β-D-ribofuranosyl-1,3,5-triazin-2(1H)-one]",Solubility,[2]; 5% Tween 80 in water,sparingly soluble
same,Solubility,[2]; 5% dextrose in water,sparingly soluble
same,Solubility,[2]; N-methylpyrrolidone,sparingly soluble
same,Solubility,[2]; acetone,insoluble
same,Solubility,[2]; dimethylsulfoxide (DMSO),soluble
same,Solubility,[2]; ethanol and water (50:50),slightly soluble
same,Solubility,[2]; ethanol,insoluble
same,Solubility,[2]; methyl ethyl ketone,insoluble
same,Solubility,[2]; normal saline,sparingly soluble
same,Solubility,[2]; polyethylene glycol,slightly soluble
same,Solubility,[2]; propylene glycol,slightly soluble
same,Solubility,[2]; water saturated octanol,sparingly soluble
same,Solubility,[2]; water,sparingly soluble
"Nc1ncn([C@@H]2O[C@H](CO)[C@@H](O)[C@H]2O)c(=O)n1 [Crystalline 5-Azacytidine Form-SA-1, 5-Azacytidine]",Water content,[1],0.6 % w/w
